Data from ChEMBL document CHEMBL5154758, “Structure-Activity Relationship Study of Indolin-5-yl-cyclopropanamine Derivatives as Selective Lysine Specific Demethylase 1 (LSD1) Inhibitors” (J Med Chem, 2022).
Values belong to the compound of their own block, whether it stands above or below them. The source made the active and inactive calls. The calls are words filed in the database; no cut-off is given here.

Tests used:
[1] = biological target: T1, Amine oxidase [flavin-containing] B (Homo sapiens, UniProt P27338); assay: biochemical
T1 sequence (P27338 whole entry): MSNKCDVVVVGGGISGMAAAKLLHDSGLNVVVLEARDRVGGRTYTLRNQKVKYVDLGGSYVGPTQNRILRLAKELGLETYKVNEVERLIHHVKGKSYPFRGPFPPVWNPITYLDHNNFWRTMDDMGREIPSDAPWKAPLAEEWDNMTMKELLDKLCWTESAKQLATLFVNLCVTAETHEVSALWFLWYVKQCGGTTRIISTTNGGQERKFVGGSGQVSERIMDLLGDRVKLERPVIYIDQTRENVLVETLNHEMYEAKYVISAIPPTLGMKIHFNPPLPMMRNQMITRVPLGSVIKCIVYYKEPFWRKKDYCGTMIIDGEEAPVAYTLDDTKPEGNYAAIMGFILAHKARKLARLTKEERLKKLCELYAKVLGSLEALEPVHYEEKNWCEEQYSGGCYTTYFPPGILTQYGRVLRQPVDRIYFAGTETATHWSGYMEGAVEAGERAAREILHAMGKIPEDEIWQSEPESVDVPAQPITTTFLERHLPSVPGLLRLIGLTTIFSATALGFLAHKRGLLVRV
Description: Inhibition of human recombinant MAO-B expressed in baculovirus infected BTI insect cells using luminogenic MAO substrate incubated for 1 hr by luciferin-based luminescence assay

[2] = biological target: T2, Amine oxidase [flavin-containing] A (Homo sapiens, UniProt P21397); assay: biochemical
T2 sequence (P21397 whole entry): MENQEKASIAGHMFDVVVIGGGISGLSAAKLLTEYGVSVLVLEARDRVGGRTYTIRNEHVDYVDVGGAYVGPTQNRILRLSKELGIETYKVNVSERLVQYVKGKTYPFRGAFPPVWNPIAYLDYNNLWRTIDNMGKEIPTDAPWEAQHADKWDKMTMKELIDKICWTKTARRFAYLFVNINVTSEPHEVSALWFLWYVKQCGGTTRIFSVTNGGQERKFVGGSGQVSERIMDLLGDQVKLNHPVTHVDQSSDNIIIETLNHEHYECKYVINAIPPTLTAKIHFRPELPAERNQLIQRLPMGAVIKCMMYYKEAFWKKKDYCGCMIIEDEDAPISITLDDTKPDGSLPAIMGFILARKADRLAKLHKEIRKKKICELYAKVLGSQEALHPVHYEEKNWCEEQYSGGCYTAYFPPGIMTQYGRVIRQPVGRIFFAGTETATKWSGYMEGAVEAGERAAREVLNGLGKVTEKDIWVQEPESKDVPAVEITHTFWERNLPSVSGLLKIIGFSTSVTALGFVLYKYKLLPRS
Description: Inhibition of human recombinant MAO-A expressed in baculovirus infected BTI insect cells using luminogenic MAO substrate incubated for 1 hr by luciferin-based luminescence assay

[3] = Drug metabolism in human liver microsomes assessed as N-acetyl M2 metabolite formation at 3 uM incubated for 3 hrs by UPLC/Q-TOF MS analysis; assay type: ADME, Microsome
[4] = Cmax in ICR mouse at 20 mg/kg, po measured upto 24 hrs by LC-MS/MS analysis; assay type: ADME, organism-based; set-up: time < 24 hrs, dose 20 mg/kg, route po; settings: in vivo
MV4-11 [5] = assay: In vivo antitumor activity against human MV4-11 cells xenografted in nu/nu mouse assessed as tumor volume at 20 mg/kg, po qd measured on day 15 (reference value: 959 +/- 111 mm3); assay type: functional; settings: time 15 day
MV4-11 [6] = assay: In vivo antitumor activity against human MV4-11 cells xenografted in nu/nu mouse assessed as tumor volume at 20 mg/kg, po qd measured on day 1 (reference value: 154 +/- 53 mm3); assay type: functional; settings: time 1 day
[7] = Metabolic stability in rat hepatocytes at 3 uM incubated for 3 hrs by UPLC/Q-TOF MS analysis; assay type: ADME, cell-based, Hepatocyte
[8] = Drug metabolism in human liver microsomes assessed as amino dealkylation of parent compound causing M1 metabolite formation at 3 uM incubated for 3 hrs by UPLC/Q-TOF MS analysis; assay type: ADME, Microsome
[9] = Metabolic stability in mouse hepatocytes at 3 uM incubated for 3 hrs by UPLC/Q-TOF MS analysis; assay type: ADME, cell-based, Hepatocyte
MV4-11 [10] = assay: Induction of differentiation of human MV4-11 cells assessed as morphological changes by measuring segmented nucleus at 2.5 uM incubated for 240 hrs by Wright-Giemsa staining based microscopy; assay type: functional, cell-based
[11] = Half life in ICR mouse at 20 mg/kg, po measured upto 24 hrs by LC-MS/MS analysis; assay type: ADME, organism-based; settings: in vivo
MV4-11 [12] = assay: In vivo antitumor activity against human MV4-11 cells xenografted in nu/nu mouse assessed as tumor volume at 10 mg/kg, po qd measured on day 1 (reference value: 154 +/- 53 mm3); assay type: functional; settings: time 1 day
[13] = AUC (0 to infinity) in ICR mouse at 20 mg/kg, po measured upto 24 hrs by LC-MS/MS analysis; assay type: ADME, organism-based; set-up: dose 20 mg/kg, time < 24 hrs, route po; settings: in vivo
[14] = Drug metabolism in monkey liver microsomes assessed as amino dealkylation of parent compound causing M1 metabolite formation at 3 uM incubated for 3 hrs by UPLC/Q-TOF MS analysis; assay type: ADME, Macaca mulatta, Microsome; settings: rhesus monkey
MV4-11 [15] = assay: In vivo antitumor activity against human MV4-11 cells xenografted in nu/nu mouse assessed as T/C ratio at 20 mg/kg,po qd measured after 15 days relative to control; assay type: functional; settings: time 15 day
MV4-11 [16] = assay: Antiproliferative activity against human MV4-11 cells assessed as inhibition of cell growth incubated for 240 hrs by MTS assay; assay type: functional, cell-based; settings: MV4-11, 240 h
MV4-11 [17] = assay: In vivo antitumor activity against human MV4-11 cells xenografted in nu/nu mouse assessed as tumor volume at 10 mg/kg, po qd measured on day 15 (reference value: 959 +/- 111 mm3); assay type: functional; settings: time 15 day
[18] = Drug metabolism in monkey liver microsomes assessed as N-acetyl M2 metabolite formation at 3 uM incubated for 3 hrs by UPLC/Q-TOF MS analysis; assay type: ADME, Macaca mulatta, Microsome; settings: rhesus monkey
MV4-11 [19] = assay: Induction of differentiation of human MV4-11 cells assessed as morphological changes by measuring reduction in nuclear to cytoplasmic ratio at 2.5 uM incubated for 240 hrs by Wright-Giemsa staining based microscopy; assay type: functional, cell-based
MV4-11 [20] = assay: In vivo antitumor activity against human MV4-11 cells xenografted in nu/nu mouse assessed as relative tumor volume at 10 mg/kg, po qd measured after 15 days (reference value: 6.85 +/- 1.84 ); assay type: functional; settings: time 15 day
[21] = Metabolic stability in dog hepatocytes at 3 uM incubated for 3 hrs by UPLC/Q-TOF MS analysis; assay type: ADME, cell-based, Canis lupus familiaris, Hepatocyte
MV4-11 [22] = assay: Activation of CD86 expression in human MV4-11 cells incubated for 24 hrs by qRT-PCR analysis; assay type: functional, cell-based; settings: MV4-11, 24 h
MV4-11 [23] = assay: In vivo antitumor activity against human MV4-11 cells xenografted in nu/nu mouse assessed as relative tumor volume at 20 mg/kg, po qd measured after 15 days (reference value: 6.85 +/- 1.84 ); assay type: functional; settings: time 15 day
RPMI-8226 = assay: Antiproliferative activity against human RPMI-8226 cells assessed as inhibition of cell growth incubated for 240 hrs by MTS assay; assay type: functional, cell-based; settings: RPMI-8226, 240 h
MV4-11 [24] = assay: In vivo antitumor activity against human MV4-11 cells xenografted in nu/nu mouse assessed as T/C ratio at 10 mg/kg, po qd measured after 15 days relative to control; assay type: functional; settings: time 15 day
[25] = biological target: T3, Lysine-specific histone demethylase 2 (Homo sapiens, UniProt Q8NB78); assay: Inhibition of human LSD2 using H3K4Me2 peptide as substrate incubated for 60 min by peroxidase-coupled method
T3 sequence (Q8NB78 whole entry): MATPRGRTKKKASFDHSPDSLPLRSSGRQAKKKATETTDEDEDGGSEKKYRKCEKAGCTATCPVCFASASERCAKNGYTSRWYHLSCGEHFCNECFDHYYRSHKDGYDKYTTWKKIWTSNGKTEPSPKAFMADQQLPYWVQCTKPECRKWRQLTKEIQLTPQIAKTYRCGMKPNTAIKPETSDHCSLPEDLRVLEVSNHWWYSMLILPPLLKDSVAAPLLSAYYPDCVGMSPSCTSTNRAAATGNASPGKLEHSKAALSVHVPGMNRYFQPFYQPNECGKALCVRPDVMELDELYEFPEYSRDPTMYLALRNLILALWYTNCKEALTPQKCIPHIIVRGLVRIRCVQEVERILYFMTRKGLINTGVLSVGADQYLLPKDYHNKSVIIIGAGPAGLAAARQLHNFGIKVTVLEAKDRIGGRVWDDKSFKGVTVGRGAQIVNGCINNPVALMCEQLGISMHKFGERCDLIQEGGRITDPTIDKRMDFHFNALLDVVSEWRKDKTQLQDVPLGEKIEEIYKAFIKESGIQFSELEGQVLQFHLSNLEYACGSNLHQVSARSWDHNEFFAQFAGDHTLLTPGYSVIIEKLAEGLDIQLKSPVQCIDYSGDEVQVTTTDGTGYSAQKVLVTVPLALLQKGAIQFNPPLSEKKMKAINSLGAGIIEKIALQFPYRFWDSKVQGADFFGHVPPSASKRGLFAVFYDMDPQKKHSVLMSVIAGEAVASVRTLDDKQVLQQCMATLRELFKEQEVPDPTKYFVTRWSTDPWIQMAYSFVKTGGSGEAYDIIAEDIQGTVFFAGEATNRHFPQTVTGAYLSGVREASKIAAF

Drug metabolism [3]: Metabolite_Detected
Cmax [4]: 85.7 ng/mL
Stability [7]: Stable
Drug metabolism [8]: Metabolite_Detected
IC50 [1]: > 100 µM
Stability [9]: Stable
half-life [11]: 5.32 h
IC50 [2]: > 100 µM
AUC [13]: 619 ng·h/mL
Drug metabolism [14]: Metabolite_Detected
IC50 (MV4-11 [16]): 1.36 µM
Drug metabolism [18]: Metabolite_Detected
Stability [21]: Stable
EC50 (MV4-11 [22]): 0.47 µM
IC50 (RPMI-8226): > 20 µM
SMILES: O=S(=O)(c1ccccc1)N1CCc2cc(C3CC3NCC3CCNCC3)ccc21 (stereo not drawn)
Activity (MV4-11 [5]): 334 mm3
Activity (MV4-11 [6]): 157 mm3
Activity (MV4-11 [10]): Active
Activity (MV4-11 [12]): 156 mm3
Activity (MV4-11 [15]): 30.89%
Activity (MV4-11 [17]): 522 mm3
Activity (MV4-11 [19]): Active
Activity (MV4-11 [20]): 3.58
Activity (MV4-11 [23]): 2.12
Activity (MV4-11 [24]): 52.29%

IC50 [1]: > 100 µM
IC50 [2]: > 100 µM
SMILES: O=S(=O)(C1CCCCC1)N1CCc2cc(C3CC3NCC3CCNCC3)ccc21 (stereo not drawn)

IC50 [2]: 96.3 µM
SMILES: N[C@H]1CC[C@H](CNC2CC2c2ccc3c(c2)CCN3S(=O)(=O)c2ccccc2)CC1 (stereo partly drawn)

IC50 [2]: > 100 µM
IC50 (MV4-11 [16]): 1.23 µM
IC50 (RPMI-8226): > 20 µM
SMILES: CC(C)(C)C(=O)N1CCc2cc(C3CC3NCC3CCNCC3)ccc21 (trans isomer)

IC50 [2]: > 100 µM
SMILES: O=S(=O)(c1ccc(-c2ccccc2)cc1)N1CCc2cc(C3CC3NCC3CCNCC3)ccc21 (trans isomer)

IC50 [1]: > 100 µM
IC50 [2]: > 100 µM
IC50 (MV4-11 [16]): 7.66 µM
SMILES: CCC(=O)N1CCc2cc(C3CC3NCC3CCNCC3)ccc21 (trans isomer)

The next lines start with the compound.

SMILES: O=S(=O)(c1ccccc1)N1CCc2cc(C3CC3NC3CC4(CCNCC4)C3)ccc21 (trans isomer)
IC50 [1]: > 100 µM
IC50 [2]: > 100 µM

SMILES: CC1(CNC2CC2c2ccc3c(c2)CCN3S(=O)(=O)c2ccccc2)CCNCC1 (trans isomer)
IC50 [1]: > 100 µM
IC50 [2]: 100 µM

SMILES: N[C@@H]1C[C@H]1c1ccc(NC(=O)c2ccccc2)cc1
Ki [25]: 61 µM

SMILES: O=C(N[C@@H](CCCCNC1CC1c1ccccc1)C(=O)NCc1ccc(Cl)cc1)c1ccc(-c2ccccc2)cc1 (stereo partly drawn)
IC50 [1]: > 100 µM
IC50 [2]: > 100 µM

SMILES: O=S(=O)(c1ccccc1)N1CCc2cc(C3CC3NCC3CCN(Cc4ccccc4)CC3)ccc21 (trans isomer)
IC50 [1]: > 100 µM
